Reference: PMC6067878, “Lipoate-binding proteins and specific lipoate-protein ligases in microbial sulfur oxidation reveal an atpyical role for an old cofactor” (eLife, 2018)

Tests used:
[1] = target: T1, TkLbpA2 (lipoate-binding protein LbpA2, TK90_0640) (Thioalkalivibrio sp. K90mix, UniProt D3SF88); test: MALDI mass spectrometry of enzymatic lipoylation; details: covalent; lipoyl group attached to apo-protein by TkLplA with ATP, 37 °C
T1 construct: gene gcvH; Strep- or His-tagged (pET22b), made in E. coli as apoprotein
T1 sequence (D3SF88 1-145): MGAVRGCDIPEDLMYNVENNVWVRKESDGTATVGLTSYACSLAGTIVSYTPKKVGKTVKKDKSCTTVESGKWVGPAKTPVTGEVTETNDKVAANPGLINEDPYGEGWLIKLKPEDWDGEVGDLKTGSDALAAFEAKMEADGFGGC

[2] = target: T2, TkLbpA1 (lipoate-binding protein LbpA1, TK90_0638) (Thioalkalivibrio sp. K90mix, UniProt D3SF86); test: MALDI mass spectrometry of enzymatic lipoylation; details: covalent; lipoyl group attached to apo-protein by TkLplA with ATP, 37 °C
T2 construct: Strep- or His-tagged (pET22b), made in E. coli as apoprotein
T2 sequence (D3SF86 1-148): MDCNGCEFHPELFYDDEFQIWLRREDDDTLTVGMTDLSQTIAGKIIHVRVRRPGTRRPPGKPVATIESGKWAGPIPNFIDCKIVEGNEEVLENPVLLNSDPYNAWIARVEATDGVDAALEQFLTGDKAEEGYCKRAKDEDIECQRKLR

[3] = target: T3, TkLplA (LplA-like lipoate-protein ligase, TK90_0642) (Thioalkalivibrio sp. K90mix, UniProt D3SF90); test: TLC of lipoyl-AMP from [alpha-32P]ATP; MALDI of lipoylated acceptor; assay type: biochemical; details: Mg2+, 50 mM sodium phosphate pH 7.8, 37 °C (adenylation), acceptors TkLbpA1 and TkLbpA2
T3 construct: Strep- or His-tagged (pET22b), made in E. coli; single-domain ligase lacking the small domain
T3 sequence (D3SF90 1-363): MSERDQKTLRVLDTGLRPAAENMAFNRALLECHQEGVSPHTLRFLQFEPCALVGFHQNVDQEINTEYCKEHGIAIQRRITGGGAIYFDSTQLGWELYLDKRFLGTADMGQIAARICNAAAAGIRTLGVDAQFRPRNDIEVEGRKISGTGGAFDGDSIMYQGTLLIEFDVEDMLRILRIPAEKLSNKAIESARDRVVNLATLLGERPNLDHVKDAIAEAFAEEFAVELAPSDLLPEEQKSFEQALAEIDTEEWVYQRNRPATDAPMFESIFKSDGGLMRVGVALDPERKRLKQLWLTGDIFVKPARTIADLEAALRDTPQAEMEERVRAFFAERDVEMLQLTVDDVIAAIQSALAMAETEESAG

Question: For `O=C(O)CCCC[C@@H]1CCSS1` (racemic) [lipoic acid, 1,2-dithiolane-3-pentanoic acid], which “MALDI mass spectrometry of enzymatic lipoylation” value [1] is on record?
Answer: The value was “The overall lipoate ligase activity of LplA-like proteins was confirmed by mass spectrometry”.

Question: And the “MALDI mass spectrometry of enzymatic lipoylation” value [2]?
Answer: The value was “The overall lipoate ligase activity of LplA-like proteins was confirmed by mass spectrometry”.

Question: What about the “TLC of lipoyl-AMP from [alpha-32P]ATP; MALDI of lipoylated acceptor” value [3] of the same molecule?
Answer: Its value is “synthesis of both octanoyl-adenylate and lipoyl-adenylate intermediates were readily demonstrated”.
